In PubChem BioAssay AID2060506 (Molecular Pharmacology Branch, DTP, NCI, 2025):

System: 598228-144-R-J1-PDC complex spheroid viability
Assay: Anticancer human tumor 598228-144-R-J1-PDC patient-derived serous endometrial adenocarcinoma cell line growth inhibition [GQUAD]
Settings: for IC50: curve of first compound; for viability, T/C: stronger effect = lower value
In short: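 Multi-cell-type spheroids of tumor cells with HUVEC and mesenchymal stem cells, treated with drug combinations. Concentrations descend in half-log steps from near clinical Cmax, or from 10 microM where Cmax is unknown; viability read-out.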
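Further: spheroids exposed to the agents for one week before reading.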
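Wherever viability, T/C is given: percent of vehicle DMSO control viability so 100% = untreated growth.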

## COc1cccc2c1C(=O)c1c(O)c3c(c(O)c1C2=O)CC(O)(C(=O)CO)CC3OC1CC(N)C(O)C(C)O1 (configuration not stated) + Cc1cnc(CNC(=O)c2c(=O)c3ccc(N4CCCN(C)CC4)nc3n3c2sc2ccccc23)cn1
Second compound 0.0316 µM
  IC50: 807 nM
Second compound 0.1 µM
  IC50: 745 nM
Second compound 0.316 µM
  IC50: 779 nM
Second compound 1 µM
  IC50: 529 nM
Second compound 3.16 µM
  IC50: 335 nM
Second compound 10 µM
  IC50: < 31.6 nM
Second compound 0.0316 µM, first compound 0.0316 µM
  viability, T/C: 90.4%
Second compound 0.0316 µM, first compound 0.1 µM
  viability, T/C: 73.9%
Second compound 0.0316 µM, first compound 0.316 µM
  viability, T/C: 79.3%
Second compound 0.0316 µM, first compound 1 µM
  viability, T/C: 43.3%
Second compound 0.0316 µM, first compound 3.16 µM
  viability, T/C: 0.82%
Second compound 0.0316 µM, first compound 10 µM
  viability, T/C: 0.57%
Second compound 0.1 µM, first compound 0.0316 µM
  viability, T/C: 80.8%
Second compound 0.1 µM, first compound 0.1 µM
  viability, T/C: 56.7%
Second compound 0.1 µM, first compound 0.316 µM
  viability, T/C: 77.8%
Second compound 0.1 µM, first compound 1 µM
  viability, T/C: 42.5%
Second compound 0.1 µM, first compound 3.16 µM
  viability, T/C: 1.19%
Second compound 0.1 µM, first compound 10 µM
  viability, T/C: 0.85%
Second compound 0.316 µM, first compound 0.0316 µM
  viability, T/C: 69.1%
Second compound 0.316 µM, first compound 0.1 µM
  viability, T/C: 64.6%
Second compound 0.316 µM, first compound 0.316 µM
  viability, T/C: 80.3%
Second compound 0.316 µM, first compound 1 µM
  viability, T/C: 44.1%
Second compound 0.316 µM, first compound 3.16 µM
  viability, T/C: 0.37%
Second compound 0.316 µM, first compound 10 µM
  viability, T/C: 0.24%
Second compound 1 µM, first compound 0.0316 µM
  viability, T/C: 63.1%
Second compound 1 µM, first compound 0.1 µM
  viability, T/C: 67.6%
Second compound 1 µM, first compound 0.316 µM
  viability, T/C: 82.9%
Second compound 1 µM, first compound 1 µM
  viability, T/C: 23.8%
Second compound 1 µM, first compound 3.16 µM
  viability, T/C: 0.6%
Second compound 1 µM, first compound 10 µM
  viability, T/C: 0.4%
Second compound 3.16 µM, first compound 0.0316 µM
  viability, T/C: 44.3%
Second compound 3.16 µM, first compound 0.1 µM
  viability, T/C: 61.6%
Second compound 3.16 µM, first compound 0.316 µM
  viability, T/C: 52.7%
Second compound 3.16 µM, first compound 1 µM
  viability, T/C: 0.52%
Second compound 3.16 µM, first compound 3.16 µM
  viability, T/C: 0.72%
Second compound 3.16 µM, first compound 10 µM
  viability, T/C: 0.28%
Second compound 10 µM, first compound 0.0316 µM
  viability, T/C: 45.2%
Second compound 10 µM, first compound 0.1 µM
  viability, T/C: 43.8%
Second compound 10 µM, first compound 0.316 µM
  viability, T/C: 20.7%
Second compound 10 µM, first compound 1 µM
  viability, T/C: 0.36%
Second compound 10 µM, first compound 3.16 µM
  viability, T/C: 0.41%
Second compound 10 µM, first compound 10 µM
  viability, T/C: 0.29%
